The structures appear in SMILES notation.

The record followed here is patent publication US10800782B2, “Inhibitors of cellular metabolic processes” (Agios Pharmaceuticals, Inc., priority 2016, dated 2020).

In this test the target is T1, MAT2A (Homo sapiens, UniProt P31153).
T1 construct: His6; made in house; host or cells: SF9 insect cells
In words: MAT2A biochemical assay (colorimetric inorganic phosphate detection, PiColorLock). The settings on record: recombinant His6-tagged MAT2A 1 μg/ml; 60 minutes preincubation at 25° C.; L-Met 80 μM, ATP 100 μM; 60 minutes reaction; read at 623 nm; read-out: MAT2A Inhibition Score. In a few lines:
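His6-tagged human MAT2A (SF9-expressed, 1 μg/ml) converting L-Met and ATP to SAM in Tris pH 8.0, 50 mM KCl, 15 mM MgCl2, 300 uM EDTA, 0.005% BSA; 60 min at room temperature. Released phosphate detected colorimetrically with malachite green phosphomolybdate. Ten-point, three-fold compound dilution series.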

T1 sequence (P31153 whole entry): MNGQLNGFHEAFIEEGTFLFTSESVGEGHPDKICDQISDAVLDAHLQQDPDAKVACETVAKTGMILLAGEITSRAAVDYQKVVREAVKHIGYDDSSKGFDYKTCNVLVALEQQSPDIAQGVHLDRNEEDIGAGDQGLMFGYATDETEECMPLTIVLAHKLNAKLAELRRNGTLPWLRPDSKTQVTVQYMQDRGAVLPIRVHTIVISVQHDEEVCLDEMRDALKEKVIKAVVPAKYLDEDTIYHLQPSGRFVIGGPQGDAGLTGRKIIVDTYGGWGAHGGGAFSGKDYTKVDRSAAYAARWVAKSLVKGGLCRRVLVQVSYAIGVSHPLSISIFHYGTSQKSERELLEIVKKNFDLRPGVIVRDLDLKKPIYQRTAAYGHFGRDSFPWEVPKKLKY

As to `O=c1c(-c2ccc3ncccc3c2)c(Nc2ccccn2)[nH]c2c(-c3ccccc3)c(-c3ccccc3)nn12` [Compound 168, 2,3-diphenyl-5-(pyridin-2-ylamino)-6-(quinolin-6-yl)pyrazolo[1,5-a]pyrimidin-7(4H)-one], the IC50 is less than 100 nM. Next, `O=c1c(-c2ccc3ncccc3c2)c(Nc2ccncn2)[nH]c2c(-c3ccccc3)c(-c3ccccc3)nn12` [Compound 169, 2,3-diphenyl-5-(pyrimidin-4-ylamino)-6-(quinolin-6-yl)pyrazolo[1,5-a]pyrimidin-7(4H)-one]: less than 100 nM. Under `O=c1c(-c2ccc3ncccc3c2)c(Nc2ccon2)[nH]c2c(-c3ccccc3)c(-c3ccccc3)nn12` [Compound 170, 5-(isoxazol-3-ylamino)-2,3-diphenyl-6-(quinolin-6-yl)pyrazolo[1,5-a]pyrimidin-7(4H)-one] stands less than 100 nM; under `CCOC(=O)c1nnc(Nc2[nH]c3c(-c4ccccc4)c(-c4ccccc4)nn3c(=O)c2-c2ccc3ncccc3c2)o1` [Compound 171, ethyl 5-((7-oxo-2,3-diphenyl-6-(quinolin-6-yl)-4,7-dihydropyrazolo[1,5-a]pyrimidin-5-yl)amino)-1,3,4-oxadiazole-2-carboxylate], less than 100 nM. Under `CC(=O)Nc1[nH]c2c(-c3ccccc3)c(-c3ccccc3)nn2c(=O)c1-c1ccc2ncccc2c1` [Compound 172, N-(7-oxo-2,3-diphenyl-6-(quinolin-6-yl)-4,7-dihydropyrazolo[1,5-a]pyrimidin-5-yl)acetamide] stands less than 100 nM; under `O=C(CO)Nc1[nH]c2c(-c3ccccc3)c(-c3ccccc3)nn2c(=O)c1-c1ccc2ncccc2c1` [Compound 173, 2-hydroxy-N-(7-oxo-2,3-diphenyl-6-(quinolin-6-yl)-4,7-dihydropyrazolo[1,5-a]pyrimidin-5-yl)acetamide], less than 100 nM; under `O=c1c(-c2ccc3ncccc3c2)c(Nc2ccccn2)[nH]c2c(C3=CCCCC3)c(-c3ccccc3)nn12` [Compound 174, 3-cyclohexenyl-2-phenyl-5-(pyridin-2-ylamino)-6-(quinolin-6-yl)pyrazolo[1,5-a]pyrimidin-7(4H)-one], less than 100 nM.

As for `O=c1c(-c2ccc3ncccc3c2)c(Nc2cnccn2)[nH]c2c(C3=CCCCC3)c(-c3ccccc3)nn12` [Compound 175, 3-cyclohexenyl-2-phenyl-5-(pyrazin-2-ylamino)-6-(quinolin-6-yl)pyrazolo[1,5-a]pyrimidin-7(4H)-one], the IC50 was less than 100 nM. Under `O=c1c(-c2ccc3ncccc3c2)c(Nc2ccon2)[nH]c2c(C3=CCCCC3)c(-c3ccccc3)nn12` [Compound 176, 3-cyclohexenyl-5-(isoxazol-3-ylamino)-2-phenyl-6-(quinolin-6-yl)pyrazolo[1,5-a]pyrimidin-7(4H)-one] stands less than 100 nM; under `O=c1c(-c2ccc3nccnc3c2)c(Nc2ccon2)[nH]c2c(C3=CCCCC3)c(-c3ccccc3)nn12` [Compound 177, 3-(cyclohex-1-en-1-yl)-5-(isoxazol-3-ylamino)-2-phenyl-6-(quinoxalin-6-yl)pyrazolo[1,5-a]pyrimidin-7(4H)-one], less than 100 nM; under `COc1ccc(-c2c(Nc3ccccn3)[nH]c3c(-c4cccc(Cl)c4)c(-c4ccccc4)nn3c2=O)cc1` [Compound 178, 3-(3-chlorophenyl)-6-(4-methoxyphenyl)-2-phenyl-5-(pyridin-2-ylamino)pyrazolo[1,5-a]pyrimidin-7(4H)-one], less than 100 nM. As for `COc1ccc(-c2c(Nc3ccccn3)[nH]c3c(-c4ccccc4F)c(-c4ccccc4)nn3c2=O)cc1` [Compound 179, 3-(2-fluorophenyl)-6-(4-methoxyphenyl)-2-phenyl-5-(pyridin-2-ylamino)pyrazolo[1,5-a]pyrimidin-7(4H)-one], the IC50 was less than 100 nM. Next, `COc1ccc(-c2c(Nc3ccccn3)[nH]c3c(-c4ccccc4)c(-c4ccccn4)nn3c2=O)cc1` [Compound 180, 6-(4-methoxyphenyl)-3-phenyl-2-(pyridin-2-yl)-5-(pyridin-2-ylamino)pyrazolo[1,5-a]pyrimidin-7(4H)-one]: less than 100 nM; `COc1ccc(-c2c(Nc3ccccn3)[nH]c3c(N4CCCCC4)c(-c4ccccc4)nn3c2=O)cc1` [Compound 181, 6-(4-methoxyphenyl)-2-phenyl-3-(piperidin-1-yl)-5-(pyridin-2-ylamino)pyrazolo[1,5-a]pyrimidin-7(4H)-one]: less than 100 nM; `COc1ccc(-c2c(Nc3cc[nH]n3)[nH]c3c(-c4ccccc4)c(-c4ccccc4)nn3c2=O)cc1` [Compound 182, 5-((1H-pyrazol-3-yl)amino)-6-(4-methoxyphenyl)-2,3-diphenylpyrazolo[1,5-a]pyrimidin-7(4H)-one]: less than 100 nM. As to `COc1ccc(-c2c(Nc3cc(OC)[nH]n3)[nH]c3c(-c4ccccc4)c(-c4ccccc4)nn3c2=O)cc1` [Compound 183, 5-((5-methoxy-1H-pyrazol-3-yl)amino)-6-(4-methoxyphenyl)-2,3-diphenylpyrazolo[1,5-a]pyrimidin-7(4H)-one], the IC50 is less than 100 nM. Regarding `COc1ccc(-c2c(Nc3c[nH]cn3)[nH]c3c(-c4ccccc4)c(-c4ccccc4)nn3c2=O)cc1` [Compound 184, 5-((1H-imidazol-4-yl)amino)-6-(4-methoxyphenyl)-2,3-diphenylpyrazolo[1,5-a]pyrimidin-7(4H)-one], the IC50 was less than 100 nM.

On to `COc1ccc(-c2c(Nc3cn[nH]n3)[nH]c3c(-c4ccccc4)c(-c4ccccc4)nn3c2=O)cc1` [Compound 185, 5-((2H-1,2,3-triazol-4-yl)amino)-6-(4-methoxyphenyl)-2,3-diphenylpyrazolo[1,5-a]pyrimidin-7(4H)-one], for which the IC50 was less than 100 nM. Next, `COc1ccc(-c2c(Nc3cc(N)[nH]n3)[nH]c3c(-c4ccccc4)c(-c4ccccc4)nn3c2=O)cc1` [Compound 186, 5-((5-amino-1H-pyrazol-3-yl)amino)-6-(4-methoxyphenyl)-2,3-diphenylpyrazolo[1,5-a]pyrimidin-7(4H)-one]: less than 100 nM. Next, `O=c1c(-c2ccc3ncccc3c2)c(Nc2cc[nH]n2)[nH]c2c(-c3ccccc3)c(-c3ccccc3)nn12` [Compound 187, 5-((1H-pyrazol-3-yl)amino)-2,3-diphenyl-6-(quinolin-6-yl)pyrazolo[1,5-a]pyrimidin-7(4H)-one]: less than 100 nM; `Cc1cc(Nc2[nH]c3c(-c4ccccc4)c(-c4ccccc4)nn3c(=O)c2-c2ccc3ncccc3c2)n[nH]1` [Compound 188, 5-((5-methyl-1H-pyrazol-3-yl)amino)-2,3-diphenyl-6-(quinolin-6-yl)pyrazolo[1,5-a]pyrimidin-7(4H)-one]: less than 100 nM; `COc1ccc(-c2c(Nc3ccn[nH]3)[nH]c3c(C4=CCCCC4)c(-c4ccccc4)nn3c2=O)cc1` [Compound 189, 5-((1H-pyrazol-5-yl)amino)-3-(cyclohex-1-en-1-yl)-6-(4-methoxyphenyl)-2-phenyl pyrazolo[1,5-a]pyrimidin-7(4H)-one]: less than 100 nM. For the compound `O=c1c(-c2ccc3ncccc3c2)c(Nc2ccn[nH]2)[nH]c2c(C3=CCCCC3)c(-c3ccccc3)nn12` [Compound 190, 5-((1H-pyrazol-5-yl)amino)-3-(cyclohex-1-en-1-yl)-2-phenyl-6-(quinolin-6-yl)pyrazolo[1,5-a]pyrimidin-7(4H)-one], the IC50 was less than 100 nM. Take `O=c1c(-c2ccc3nccnc3c2)c(Nc2ccn[nH]2)[nH]c2c(C3=CCCCC3)c(-c3ccccc3)nn12` [Compound 191, 5-((1H-pyrazol-5-yl)amino)-3-(cyclohex-1-en-1-yl)-2-phenyl-6-(quinoxalin-6-yl)pyrazolo[1,5-a]pyrimidin-7(4H)-one]: the IC50 is less than 100 nM. For `COc1ccc(-c2c(Nc3cscn3)[nH]c3c(-c4ccccc4)c(-c4ccccc4)nn3c2=O)cc1` [Compound 192, 6-(4-methoxyphenyl)-2,3-diphenyl-5-(thiazol-4-ylamino)pyrazolo[1,5-a]pyrimidin-7(4H)-one], the IC50 was less than 100 nM. As for `O=c1c(-c2ccc(O)cc2)c(Nc2cc[nH]n2)[nH]c2c(-c3ccccc3)c(-c3ccccc3)nn12` [Compound 193, 5-((1H-pyrazol-3-yl)amino)-6-(4-hydroxyphenyl)-2,3-diphenylpyrazolo[1,5-a]pyrimidin-7(4H)-one], the IC50 is less than 100 nM. Under `O=c1c(-c2ccc(O)cc2)c(Nc2cnccn2)[nH]c2c(C3=CCCCC3)c(-c3ccccc3)nn12` [Compound 194, 3-cyclohexenyl-6-(4-hydroxyphenyl)-2-phenyl-5-(pyrazin-2-ylamino)pyrazolo[1,5-a]pyrimidin-7(4H)-one] stands less than 100 nM; under `O=c1c(-c2ccc(O)cc2)c(Nc2nc[nH]n2)[nH]c2c(-c3ccccc3)c(-c3ccccc3)nn12` [Compound 195, 5-((1H-1,2,4-triazol-3-yl)amino)-6-(4-hydroxyphenyl)-2,3-diphenylpyrazolo[1,5-a]pyrimidin-7(4H)-one], less than 100 nM. Next, `Cc1nc2ccc(-c3c(Nc4ccccn4)[nH]c4c(-c5ccccc5)c(-c5ccccc5)nn4c3=O)cc2s1` [Compound 196, 6-(2-methylbenzo[d]thiazol-6-yl)-2,3-diphenyl-5-(pyridin-2-ylamino)pyrazolo[1,5-a]pyrimidin-7(4H)-one]: less than 100 nM; `O=c1c(-c2ccc3c(c2)NCCO3)c(Nc2ccccn2)[nH]c2c(-c3ccccc3)c(-c3ccccc3)nn12` [Compound 197, 6-(3,4-dihydro-2H-benzo[b][1,4]oxazin-6-yl)-2,3-diphenyl-5-(pyridin-2-ylamino) pyrazolo[1,5-a]pyrimidin-7(4H)-one]: less than 100 nM; `CN1CCOc2ccc(-c3c(Nc4ccccn4)[nH]c4c(-c5ccccc5)c(-c5ccccc5)nn4c3=O)cc21` [Compound 198, 6-(4-methyl-3,4-dihydro-2H-benzo[b][1,4]oxazin-6-yl)-2,3-diphenyl-5-(pyridin-2-ylamino)pyrazolo[1,5-a]pyrimidin-7(4H)-one]: less than 100 nM.
